# Reference: EP4461293B1, “BIOTIN RECEPTOR-BINDING […] COMPOUNDS” (Biomedical Research Foundation Academy of Athens, priority 2023, dated 2024)
# Several values for one entry are separate records, joined by “and”; a condition that tells them apart may be missing. Equal entries are not always repeated. Where two headings read alike, the source gives them in different places.
# What was measured:
# HCT-116 = assay: MTT viability assay, HCT-116; type: cell-based; settings: 72h, human colon cancer cells, biotin receptor-negative (Table 3a)
# MDA-MB-231 [1] = assay: MTT viability assay, MDA-MB-231; type: cell-based, human; settings: 72h (Table 3b)
# MCF-7 = assay: MTT viability assay, MCF-7; type: cell-based, human
# [2] = test system: SkBr3 human breast cancer cells; assay: MTT viability assay, SkBr3; type: cell-based; settings: 72h (Table 3b)
# SkBr3 = assay: Platinum cell uptake by mass cytometry (CyTOF), SkBr3; type: cell-based; settings: for cellular uptake (CyTOF Pt195 signal): 50 µM, 60 min, in comparison to 50 µM carboplatin (Figure 3)
# Experimental: (§1) Cell cultures: Cancer cell lines, SkBr3, MDA-MB-231, MCF-7 and A549, which overexpress biotin receptors on their surface membranes, were each independently cultured in Dulbecco's Modified Eagle Medium (DMEM), supplemented with 10% fetal bovine serum (FBS), penicillin (100 µ/mL) and streptomycin (100 µg/mL) at 37 °C and 5% CO2.
# (§2) For MCF-7, MDA-MB-231 and SkBr3 cell lines, an additional step was performed by preincubating for 15 min with 10-100 µM biotin. The quantification was performed by means of mass cytometry. Cell singlet discrimination - staining protocol B of the mass cytometer supplier (Fluidigm) was followed.
# Medium was removed from cultures and cells were pelleted at 1500 rpm. Resuspension of cells was performed in an appropriate volume of RPMI 1640 or DMEM medium to obtain a density of about 1.5-3 x 10^6 cells per mL. Cells were fractionated and treated with different concentrations of each drug or maintained as is (control). […] Suspensions were incubated for 60 min at 37 °C and 5% CO2. Suspensions used to evaluate the effect of biotin in platinum cellular uptake, were preincubated with 100 µM biotin for 15 min before the treatment with each drug. After incubation, cells were stained using Maxpar cell staining buffer (MCSB) and then fixed using 1.6% paraformaldehyde in PBS for 10 min at room temperature. Incubation with intercalator 103Rh diluted in Maxpar fix-perm buffer was performed overnight at 4 °C. Cells were washed twice with MCSB, samples were pelleted and resuspended in cell acquisition solution (CAS). A small volume of suspensions was maintained to quantify cells using Trypan blue staining. As last step, each sample was diluted with CAS and calibration beads that include metal isotopes.
# [3] = test system: human mesenchymal stem cells (WJ-MSCs); assay: MTT viability assay, toxicity to normal cells; type: cell-based; settings: 48 h growth in presence of drug, MTT assay (Figure 1)
# Description: Thus, human mesenchymal stem cells were extracted from Wharton's jelly (matrix) of the human fetal umbilical cord, also known as Wharton's Jelly Mesenchymal Stem cells (WJ-MSCs), from full-term pregnancies, as described in Christodoulou et al. [2022] and Goulielmaki et al. [2019].
# WJ-MSCs up to seventh passage were used for this in vitro assay (b22 population doublings). The mean population doubling time (PDT) was 32+/- hours and cells maintained a consistent MSC immunophenotypic profile. […]
# Cell viability of (WJ-MSCs) was determined colorimetrically in a 96-well plate assay, using the tetrazolium compound MTS (3-[4,5,dimethylthiazol-2-yl]-5-[3-carboxymethoxy-phenyl]-2-[4-sulfophenyl]-2H-tetrazolium, inner salt), which is bioreduced by cells into a colored formazan product that is soluble in tissue culture medium. […]
# At a concentration of 3.5x10^2 cells/200 µL culture medium/well (37 °C, 5% CO2), WJ-MSCs were plated into 96-well microtiter plates. […] At the end, the absorbance was measured at 490nm (with 650nm as a reference wavelength) in a microplate reader (monochromator) [Monochro-mator Microplate Reader safire2 TECAN AUSTRIA GMBH/Measurement parameter Editor Magellan (version 6)].
# [4] = Pharmacokinetic study in mice, plasma by LC-MS/MS; type: in vivo, female C57BL/6 mice; settings: ip
# Experimental: Samples (plasma) were collected after 15, 30, 60 and 120 min of drug administration.
# All samples were analyzed by an LC-MS/MS bioanalytical methodology.
# A549 = assay: Platinum cell uptake by mass cytometry (CyTOF), A549; type: cell-based; settings: 50 µM, 60 min, in comparison to carboplatin (Figure 2)
# Experimental: as §1, §2
# (§3) Medium was removed from cultures and cells were pelleted at 1500 rpm. Resuspension of cells was performed in an appropriate volume of RPMI 1640 or DMEM medium to obtain a density of about 1.5-3 x 10^6 cells per mL. Cells were fractionated and treated with different concentrations of each drug or maintained as is (control). […] Suspensions were incubated for 60 min at 37 °C and 5% CO2. Suspensions used to evaluate the effect of biotin in platinum cellular uptake, were preincubated with 100 µM biotin for 15 min before the treatment with each drug. […] A small volume of suspensions was maintained to quantify cells using Trypan blue staining. […]
# MDA-MB-231 [5] = assay: Platinum cell uptake by mass cytometry (CyTOF), MDA-MB-231; type: cell-based; settings: 50 µM, 60 min, in comparison to carboplatin (Figure 2)
# Experimental: as §1, §2, §3
# Solubility = settings: DMF
# [6] = 72h, with addition of 10 µM D-(+)-Biotin (Table 2b), read-out: MCF-7 and biotin IC50
# [7] = 72h, without biotin (Table 2b), read-out: MCF-7 IC50
structure (smiles),measurement,setting,value
"CC(N)C(N)CCCCCC(=O)O.O=C1[O][Pt][O]C1=O [PMX118, (7R,8S)-7,8-diaminononanoic acid oxalatoplatinum(ll)]",IC50,HCT-116,225 µM and > 250 µM
same,IC50,MDA-MB-231 [1],116 µM and 144 µM
same,IC50,"MCF-7; 72h (Table 3b), read-out: MCF-7 IC50",100 µM
same,IC50,MCF-7; [6],290 µM
same,IC50,MCF-7; [7],133 µM
same,IC50,[2],225 µM and > 250 µM
same,cellular uptake (CyTOF Pt195 signal),SkBr3,significantly greater
[NH3+][Pt-2]1([NH3+])[O]C(=O)C2(CCC2)C(=O)[O]1 [Carboplatin],concentration at which less than 50% viability is reached,[3],100 µM
same,Cmax,"[4]; mouse, 60 mg/kg",131 ± 50 µM
same,AUC at 2 h,"[4]; mouse, 60 mg/kg, read-out: Areas under the curve (AUCs) (converted)",69.4 µM·h
"N.N.[Cl][Pt][Cl] [Cisplatin, reference compound]",IC50,HCT-116,7 µM and 8 µM
same,IC50,MCF-7; [6],12 µM
same,IC50,MCF-7; [7],9 µM
"C[C@@H]1[NH2+][Pt-2]([Cl])([Cl])[NH2+][C@@H]1CCCCCC(=O)O [PMX114, (7R,8S)-7,8-diaminononanoic acid dichloroplatinum(II)]",platinum uptake (CyTOF Pt195 signal),A549,significantly greater
same,concentration at which less than 50% viability is reached,[3],> 300 µM
same,platinum uptake (CyTOF Pt195 signal),MDA-MB-231 [5],significantly greater
same,AUC,"[4]; female, C57BL/6, mouse, 75 mg/kg, read-out: Areas under the curve (AUCs) (converted)",42.1 µM·h
same,Solubility,Solubility,good
same,cellular uptake (CyTOF Pt195 signal),SkBr3,significantly greater
same,effect of biotin preincubation on platinum entry,"SkBr3; preincubation with 100 µM of biotin for 15 min, then 50 µM drug",inhibition of platinum entry
